{"source": "PubChem BioAssay AID248", "about": "(DTP/NCI, 2004)", "tested_on": "L1210 leukemia ip in BDF1 mice, survival T/C", "assay": "NCI In Vivo Anticancer Drug Screen. Data for tumor model L1210 Leukemia (intraperitoneal) in B6D2F1 (BDF1) mice", "conditions": "endpoint: mean survival time, higher = longer survival", "in_short": "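Each compound was tested against a transplantable tumor grown in mice. The endpoint was survival, with treated animals benchmarked against vehicle controls as a simple ratio.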", "key": {"[1]": {"conditions": "dose: 100.0 mg/kg/injection, schedule: Q01DX001 (ip), vehicle: carboxymethylcellulose (CMC)"}, "[2]": {"conditions": "dose: 200.0 mg/kg/injection, schedule: Q01DX001 (ip), vehicle: carboxymethylcellulose (CMC)"}, "[3]": {"conditions": "dose: 400.0 mg/kg/injection, schedule: Q01DX001 (ip), vehicle: carboxymethylcellulose (CMC)"}, "[4]": {"conditions": "dose: 100.0 mg/kg/injection, schedule: Q04DX003 (ip), vehicle: Klucel (hydroxypropylcellulose) (HPC)"}, "[5]": {"conditions": "dose: 200.0 mg/kg/injection, schedule: Q04DX003 (ip), vehicle: Klucel (hydroxypropylcellulose) (HPC)"}}, "note": "Several values for one entry are separate records, joined by “and”; a condition that tells them apart may be missing. Identical values can stand only once. Toxic doses and inconclusive results are not listed."}
{"smiles": "CC(N)C(=O)NC(CC(N)=O)C(=O)O", "note": "(configuration not stated)", "values": [{"measurement": "T/C", "setting": "dose: 25.0 mg/kg/injection, schedule: Q04DX002 (ip), vehicle: saline", "result": "95 % of control"}, {"measurement": "T/C", "setting": "dose: 50.0 mg/kg/injection, schedule: Q01DX001 (ip), vehicle: carboxymethylcellulose (CMC)", "result": "97 % of control"}, {"measurement": "T/C", "setting": "dose: 50.0 mg/kg/injection, schedule: Q04DX002 (ip), vehicle: saline", "result": "100 % of control"}, {"measurement": "T/C", "setting": "[1]", "result": "97 % of control"}, {"measurement": "T/C", "setting": "dose: 100.0 mg/kg/injection, schedule: Q04DX002 (ip), vehicle: saline", "result": "106 % of control"}, {"measurement": "T/C", "setting": "[2]", "result": "97 % of control"}, {"measurement": "T/C", "setting": "[3]", "result": "95 % of control"}]}
{"smiles": "CCOC(=O)C(CC)(OO)c1ccncc1Br", "note": "(configuration not stated)", "values": [{"measurement": "T/C", "setting": "dose: 25.0 mg/kg/injection, schedule: Q01DX001 (ip), vehicle: Klucel (hydroxypropylcellulose) (HPC)", "result": "101 % of control"}, {"measurement": "T/C", "setting": "dose: 50.0 mg/kg/injection, schedule: Q01DX001 (ip), vehicle: Klucel (hydroxypropylcellulose) (HPC)", "result": "104 % of control"}, {"measurement": "T/C", "setting": "dose: 50.0 mg/kg/injection, schedule: Q04DX003 (ip), vehicle: Klucel (hydroxypropylcellulose) (HPC)", "result": "101 % of control"}, {"measurement": "T/C", "setting": "dose: 100.0 mg/kg/injection, schedule: Q01DX001 (ip), vehicle: Klucel (hydroxypropylcellulose) (HPC)", "result": "100 % of control and 101 % of control"}, {"measurement": "T/C", "setting": "[4]", "result": "91 % of control"}, {"measurement": "T/C", "setting": "[5]", "result": "92 % of control"}]}
{"smiles": "NCC(=O)CCS(=O)(=O)c1ccc(Cl)cc1", "values": [{"measurement": "T/C", "setting": "dose: 12.5 mg/kg/injection, schedule: Q04DX003 (ip), vehicle: saline", "result": "96 % of control"}, {"measurement": "T/C", "setting": "dose: 25.0 mg/kg/injection, schedule: Q04DX003 (ip), vehicle: saline", "result": "91 % of control"}, {"measurement": "T/C", "setting": "dose: 50.0 mg/kg/injection, schedule: Q04DX003 (ip), vehicle: saline", "result": "93 % of control"}]}
{"smiles": "O=NN(CCCl)C(=O)Nc1ccc2oc(=O)c3ccccc3c2c1", "values": [{"measurement": "T/C", "setting": "dose: 1.25 mg/kg/injection, schedule: Q01DX001 (ip), vehicle: Klucel (hydroxypropylcellulose) (HPC)", "result": "123 % of control"}, {"measurement": "T/C", "setting": "dose: 2.5 mg/kg/injection, schedule: Q01DX001 (ip), vehicle: Klucel (hydroxypropylcellulose) (HPC)", "result": "105 % of control"}, {"measurement": "T/C", "setting": "dose: 5.0 mg/kg/injection, schedule: Q01DX001 (ip), vehicle: Klucel (hydroxypropylcellulose) (HPC)", "result": "112 % of control"}, {"measurement": "T/C", "setting": "dose: 10.0 mg/kg/injection, schedule: Q01DX001 (ip), vehicle: carboxymethylcellulose (CMC)", "result": "150 % of control"}, {"measurement": "T/C", "setting": "dose: 35.0 mg/kg/injection, schedule: Q01DX001 (ip), vehicle: carboxymethylcellulose (CMC)", "result": "164 % of control"}, {"measurement": "T/C", "setting": "dose: 150.0 mg/kg/injection, schedule: Q01DX001 (ip), vehicle: carboxymethylcellulose (CMC)", "result": "120 % of control"}, {"measurement": "T/C", "setting": "dose: 177.0 mg/kg/injection, schedule: Q01DX009 (ip), vehicle: carboxymethylcellulose (CMC)", "result": "101 % of control"}, {"measurement": "T/C", "setting": "dose: 266.0 mg/kg/injection, schedule: Q01DX009 (ip), vehicle: carboxymethylcellulose (CMC)", "result": "95 % of control"}, {"measurement": "T/C", "setting": "dose: 400.0 mg/kg/injection, schedule: Q01DX009 (ip), vehicle: carboxymethylcellulose (CMC)", "result": "92 % of control"}, {"measurement": "T/C", "setting": "dose: 600.0 mg/kg/injection, schedule: Q01DX001 (ip), vehicle: carboxymethylcellulose (CMC)", "result": "152 % of control"}, {"measurement": "T/C", "setting": "dose: 600.0 mg/kg/injection, schedule: Q01DX009 (ip), vehicle: carboxymethylcellulose (CMC)", "result": "87 % of control"}]}
{"smiles": "CC(=O)OC1CCC2(C)C(=CCC3C2CCC2(C)C3CC3C(c4ccccc4)=NN(c4ccccc4)C32C(=O)c2ccccc2)C1", "note": "(configuration not stated)", "values": [{"measurement": "T/C", "setting": "dose: 25.0 mg/kg/injection, schedule: Q04DX002 (ip), vehicle: Klucel (hydroxypropylcellulose) (HPC)", "result": "104 % of control"}, {"measurement": "T/C", "setting": "dose: 50.0 mg/kg/injection, schedule: Q04DX002 (ip), vehicle: Klucel (hydroxypropylcellulose) (HPC)", "result": "93 % of control"}, {"measurement": "T/C", "setting": "dose: 100.0 mg/kg/injection, schedule: Q04DX002 (ip), vehicle: Klucel (hydroxypropylcellulose) (HPC)", "result": "111 % of control"}]}
{"smiles": "Cc1c(C)c(CN)c(C)c(C)c1CN", "values": [{"measurement": "T/C", "setting": "dose: 100.0 mg/kg/injection, schedule: Q01DX009 (ip), vehicle: Klucel (hydroxypropylcellulose) (HPC)", "result": "91 % of control"}, {"measurement": "T/C", "setting": "[4]", "result": "103 % of control"}, {"measurement": "T/C", "setting": "dose: 200.0 mg/kg/injection, schedule: Q01DX009 (ip), vehicle: Klucel (hydroxypropylcellulose) (HPC)", "result": "100 % of control"}, {"measurement": "T/C", "setting": "[5]", "result": "98 % of control"}]}
{"smiles": "CNC(=O)Nc1ccc(C)cc1", "values": [{"measurement": "T/C", "setting": "[1]", "result": "108 % of control"}, {"measurement": "T/C", "setting": "[2]", "result": "111 % of control"}, {"measurement": "T/C", "setting": "[3]", "result": "111 % of control"}]}
{"smiles": "COC(CN(C)Cc1ccccc1)OC", "values": [{"measurement": "T/C", "setting": "dose: 75.0 mg/kg/injection, schedule: Q01DX001 (ip), vehicle: saline", "result": "107 % of control"}, {"measurement": "T/C", "setting": "dose: 150.0 mg/kg/injection, schedule: Q01DX001 (ip), vehicle: saline", "result": "104 % of control"}, {"measurement": "T/C", "setting": "dose: 300.0 mg/kg/injection, schedule: Q01DX001 (ip), vehicle: saline", "result": "102 % of control"}]}
{"smiles": "O=C(NCCCNC(=O)Nc1ccc(C2=NCCCN2)cc1)Nc1ccc(C2=NCCCN2)cc1", "values": [{"measurement": "T/C", "setting": "dose: 10.0 mg/kg/injection, schedule: Q01DX015 (ip), vehicle: methylcellulose (MC)", "result": "103 % of control"}, {"measurement": "T/C", "setting": "dose: 20.0 mg/kg/injection, schedule: Q01DX015 (ip), vehicle: methylcellulose (MC)", "result": "103 % of control"}]}
